Active and inactive are the calls of the source. No rule for the calls is given here.
Tested on: CCRIS mutagenicity, Ames/micronucleus/aberration tests
Test: CCRIS mutagenicity studies
[1] = Test System: AMES SALMONELLA TYPHIMURIUM, Strain/Indicator: TA100, Metabolic Activation: NONE, Method: PREINCUBATION
[2] = Test System: AMES SALMONELLA TYPHIMURIUM, Strain/Indicator: TA100, Metabolic Activation: RAT, LIVER, S-9, AROCLOR 1254, Method: PREINCUBATION
[3] = Test System: AMES SALMONELLA TYPHIMURIUM, Strain/Indicator: TA98, Metabolic Activation: NONE, Method: PREINCUBATION
[4] = Test System: AMES SALMONELLA TYPHIMURIUM, Strain/Indicator: TA100, Metabolic Activation: NONE, Method: STANDARD PLATE

CC(=O)Nc1ccc(Cc2ccc(NC(C)=O)c(Cl)c2)cc1Cl
mutagenic call [1]: inactive; negative | mutagenic call (Test System: AMES SALMONELLA TYPHIMURIUM, Strain/Indicator: TA100, Metabolic Activation: RAT, LIVER, S-9, AROCLOR 1254 (50 µL), Method: PREINCUBATION): inactive; negative | mutagenic call (Test System: AMES SALMONELLA TYPHIMURIUM, Strain/Indicator: TA100, Metabolic Activation: RAT, LIVER, S-9, AROCLOR 1254 (100 OR 200 µL), Method: PREINCUBATION): active; positive

N#Cc1ccc2nc(N)[nH]c2c1
mutagenic call (Test System: AMES SALMONELLA TYPHIMURIUM, Strain/Indicator: TA98, Metabolic Activation: RAT, LIVER, S-9, AROCLOR 1254, Method: PREINCUBATION): active; positive | mutagenic call [2]: active; positive

C=C(C)C(=O)OCC(OC1=CCCC1)OC1=CCCC1
mutagenic call (Test System: MOUSE LYMPHOMA, Strain/Indicator: L5178Y (TK+/TK-), Metabolic Activation: NONE, Method: SUSPENSION/PLATE): inactive; negative

OC1c2cccc3c2C2(OC2C1O)c1ccc2ccccc2c1-3 (stereo not given)
mutagenic call (Test System: AMES SALMONELLA TYPHIMURIUM, Strain/Indicator: TA97A, Metabolic Activation: NONE, Method: PREINCUBATION): active; positive | mutagenic call [3]: active; positive | mutagenic call [1]: active; positive

O=C1OCC(CCl)=C1Br
mutagenic call [4]: active; positive

[As]
mutagenic call (End Point: IN VIVO CHROMOSOMAL ABERRATIONS, Test System: BLOOD LYMPHOCYTES, Species: HUMAN, Strain/Sex: MALE, FEMALE, Route: ORAL, DRINKING WATER): active; positive (structural changes) ; all subjects showed arsenic-related skin lesions | mutagenic call (End Point: IN VIVO CHROMOSOMAL ABERRATIONS, Test System: PERIPHERAL BLOOD LYMPHOCYTES, Species: HUMAN, Strain/Sex: MALE, FEMALE, Route: DRINKING WATER): active; positive; exact form of arsenic not given: significant increase in exposed indiv | mutagenic call (End Point: IN VIVO MICRONUCLEUS, Test System: PERIPHERAL BLOOD LYMPHOCYTES, Species: HUMAN, Strain/Sex: MALE, FEMALE, Route: ORAL, DRINKING WATER): active; positive; environmental exposure from drinking water | mutagenic call (End Point: In vivo micronucleus, Test System: Peripheral lymphocytes, Species: Human, Strain/Sex: Male, Route: Inhalation (Occupational)): inactive; negative

O=C1c2c(O)cccc2Cc2cccc(O)c21
mutagenic call (Test System: AMES SALMONELLA TYPHIMURIUM, Strain/Indicator: TA97, Metabolic Activation: HAMSTER, LIVER, S-9, AROCLOR 1254 (10%), Method: PREINCUBATION): inactive; negative | mutagenic call (Test System: AMES SALMONELLA TYPHIMURIUM, Strain/Indicator: TA97, Metabolic Activation: HAMSTER, LIVER, S-9, AROCLOR 1254 (30%), Method: PREINCUBATION): inactive; negative | mutagenic call (Test System: AMES SALMONELLA TYPHIMURIUM, Strain/Indicator: TA97, Metabolic Activation: NONE, Method: PREINCUBATION): inactive; negative | mutagenic call (Test System: AMES SALMONELLA TYPHIMURIUM, Strain/Indicator: TA97, Metabolic Activation: RAT, LIVER, S-9, AROCLOR 1254 (10%), Method: PREINCUBATION): inactive; negative | mutagenic call (Test System: AMES SALMONELLA TYPHIMURIUM, Strain/Indicator: TA97, Metabolic Activation: RAT, LIVER, S-9, AROCLOR 1254 (30%), Method: PREINCUBATION): inactive; negative | mutagenic call (Test System: AMES SALMONELLA TYPHIMURIUM, Strain/Indicator: TA98, Metabolic Activation: HAMSTER, LIVER, S-9, AROCLOR 1254 (10%), Method: PREINCUBATION): inactive; negative | mutagenic call (Test System: AMES SALMONELLA TYPHIMURIUM, Strain/Indicator: TA98, Metabolic Activation: HAMSTER, LIVER, S-9, AROCLOR 1254 (30%), Method: PREINCUBATION): inactive; negative | mutagenic call [3]: inactive; negative | mutagenic call (Test System: AMES SALMONELLA TYPHIMURIUM, Strain/Indicator: TA98, Metabolic Activation: RAT, LIVER, S-9, AROCLOR 1254 (10%), Method: PREINCUBATION): inactive; negative | mutagenic call (Test System: AMES SALMONELLA TYPHIMURIUM, Strain/Indicator: TA98, Metabolic Activation: RAT, LIVER, S-9, AROCLOR 1254 (30%), Method: PREINCUBATION): inactive; negative | mutagenic call (Test System: AMES SALMONELLA TYPHIMURIUM, Strain/Indicator: TA100, Metabolic Activation: FISH, LIVER, S-9, 3-METHYLCHOLANTHRENE, Method: STANDARD PLATE): inactive; negative | mutagenic call (Test System: AMES SALMONELLA TYPHIMURIUM, Strain/Indicator: TA100, Metabolic Activation: HAMSTER, LIVER, S-9, AROCLOR 1254 (10%), Method: PREINCUBATION): inactive; negative | mutagenic call (Test System: AMES SALMONELLA TYPHIMURIUM, Strain/Indicator: TA100, Metabolic Activation: HAMSTER, LIVER, S-9, AROCLOR 1254 (30%), Method: PREINCUBATION): inactive; negative | mutagenic call [1]: inactive; negative | mutagenic call [4]: inactive; negative | mutagenic call (Test System: AMES SALMONELLA TYPHIMURIUM, Strain/Indicator: TA100, Metabolic Activation: RAT, LIVER, S-9, AROCLOR 1254 (10%), Method: PREINCUBATION): inactive; negative | mutagenic call (Test System: AMES SALMONELLA TYPHIMURIUM, Strain/Indicator: TA100, Metabolic Activation: RAT, LIVER, S-9, AROCLOR 1254 (30%), Method: PREINCUBATION): inactive; negative | mutagenic call (Test System: AMES SALMONELLA TYPHIMURIUM, Strain/Indicator: TA1535, Metabolic Activation: HAMSTER, LIVER, S-9, AROCLOR 1254 (10%), Method: PREINCUBATION): inactive; negative | mutagenic call (Test System: AMES SALMONELLA TYPHIMURIUM, Strain/Indicator: TA1535, Metabolic Activation: HAMSTER, LIVER, S-9, AROCLOR 1254 (30%), Method: PREINCUBATION): inactive; negative | mutagenic call (Test System: AMES SALMONELLA TYPHIMURIUM, Strain/Indicator: TA1535, Metabolic Activation: NONE, Method: PREINCUBATION): inactive; negative | mutagenic call (Test System: AMES SALMONELLA TYPHIMURIUM, Strain/Indicator: TA1535, Metabolic Activation: RAT, LIVER, S-9, AROCLOR 1254 (10%), Method: PREINCUBATION): inactive; negative | mutagenic call (Test System: AMES SALMONELLA TYPHIMURIUM, Strain/Indicator: TA1535, Metabolic Activation: RAT, LIVER, S-9, AROCLOR 1254 (30%), Method: PREINCUBATION): inactive; negative | mutagenic call (Test System: AMES SALMONELLA TYPHIMURIUM, Strain/Indicator: TA1537, Metabolic Activation: NONE, Method: STANDARD PLATE): inactive; negative | mutagenic call (Test System: AMES SALMONELLA TYPHIMURIUM, Strain/Indicator: TA1537, Metabolic Activation: RAT, LIVER, S-9, PHENOBARBITAL AND BETA-NAPHTHOFLAVONE, Method: STANDARD PLATE): active; positive | mutagenic call (Test System: E. COLI, Strain/Indicator: WP2, Metabolic Activation: NONE, Method: STANDARD PLATE): inactive; negative | mutagenic call (Test System: E. COLI, Strain/Indicator: WP2, Metabolic Activation: RAT, LIVER, S-9, AROCLOR 1254, Method: STANDARD PLATE): inactive; negative | mutagenic call (Test System: E. COLI, Strain/Indicator: WP2 UVRA, Metabolic Activation: NONE, Method: STANDARD PLATE): inactive; negative | mutagenic call (Test System: E. COLI, Strain/Indicator: WP2 UVRA, Metabolic Activation: RAT, LIVER, S-9, AROCLOR 1254, Method: STANDARD PLATE): inactive; negative

O=C(OCc1cccc([N+](=O)[O-])c1)c1ccccc1
mutagenic call [3]: inactive; negative | mutagenic call [1]: inactive; negative | mutagenic call [2]: inactive; negative

From PubChem BioAssay AID1259407 (Chemical Carcinogenesis Research Information System (CCRIS), 2018)
